According to patent publication US20260327234A1, “NOVEL COMPOUNDS AS CYP11A1 INHIBITORS AND METHODS OF USE THEREOF” (Shenzhen Ionova Life Science Co., Ltd., priority 2023, published 2026):

Key:
[1] = target: T1, testosterone (T) production in NCI-H295R cells (Homo sapiens, UniProt P05108); experiment: H295R Steroid Biosynthesis Inhibition Assay - inhibition of testosterone (T) production in NCI-H295R cells; assay type: cell-based; settings: 48 h, LC-MS/MS, read-out: Inh. of T IC50
T1 construct: testosterone measured by LC-MS/MS as downstream steroid
T1 sequence (P05108 40-521): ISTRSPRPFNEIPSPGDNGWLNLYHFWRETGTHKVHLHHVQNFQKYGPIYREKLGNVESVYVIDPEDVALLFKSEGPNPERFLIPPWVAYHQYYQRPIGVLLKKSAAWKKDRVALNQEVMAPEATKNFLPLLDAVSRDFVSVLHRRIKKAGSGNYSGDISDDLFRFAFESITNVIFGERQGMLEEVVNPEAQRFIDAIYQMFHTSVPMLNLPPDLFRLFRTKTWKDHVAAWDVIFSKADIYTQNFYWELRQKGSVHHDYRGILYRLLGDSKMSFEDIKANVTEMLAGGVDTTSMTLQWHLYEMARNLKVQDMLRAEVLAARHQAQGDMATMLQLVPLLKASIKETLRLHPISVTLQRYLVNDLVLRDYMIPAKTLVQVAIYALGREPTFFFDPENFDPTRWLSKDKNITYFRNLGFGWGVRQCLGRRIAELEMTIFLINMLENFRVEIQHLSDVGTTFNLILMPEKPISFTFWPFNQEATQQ
Procedure: (§1) Steroid Biosynthesis Inhibition by test compounds in NCI-H295R cells (ATCC) was studied by measuring the cellular production of pregnenolone (P) catalyzed by CYP11A1 and the downstream steroid, testosterone (T). Cells were cultured in Dulbecco's modified eagle's medium F12 (DMEM/F12) with phenol red (Gibco, Cat. No. 11330032) supplemented with 2% UltroserG (Pall, Cat. No. 15950-017, USA), 1% ITS-Premix and 1% penicillin and streptomycin (Hyclone, Cat. No. SV30010, USA). Prior to the assay, cells were thawed and passed 4 times. The maximal passage number used for the assay was 10. For this assay, DMEM/F12 without phenol red supplemented with 10% charcoal-stripped fetal bovine serum (VivaCell, Cat. No. C3830-0500, USA) were used. In a 96-well plate, 60,000 cells/well were plated (90 μL/well) and incubated for 24 h. Test compounds, diluted in a serial dilution ranging from 1000 nM to 0.15 nM in the assay medium, were added to the plate. After 48 h of incubation, solution from each well were collected and transferred to individual 1.5 mL centrifuge tubes, and then 5 ng/mL deuterated testosterone (D3-testosterone) and 50 ng/mL deuterated pregnenolone (D4-pregnenolone) in 200 μL acetonitrile were added. After vigorously mixing for 5 min, the mixture was centrifuged at 12,700 rpm for 15 min. An aliquot of 250 μL supernatant was collected and dried under N2 stream. After addition of 150 μL Methanol:water (1:1, v/v) to the dried product, 50 μL sample of this solution was injected into the LC-MS/MS system for analysis.
(§2) The half-maximal inhibitory concentration (IC50) for steroid biosynthesis inhibition was determined by curve-fitting with the 4-variable inhibitory dose response equation using GraphPad Prism software.
(§3) Testosterone and pregnenolone were analyzed using Shimadzu LC30AD HPLC system (Shimadzu, Kyoto, Japan) coupled with AB SCIEX Qtrap 5500 triple quadrupole mass spectrometer (AB Sciex, Framingham, MA, USA) via ESI interface in the positive ionization mode. An ACQUITY UPLC BEH Shield RP18 column (1.7 μm, 2.1×50 mm, Milford, MA, USA) maintained at 40° C. was used to separate analytes and IS form the sample matrix.
(§4) The mobile phase was a mixture of 10 mM ammonium acetate in water containing 0.2% formic acid (A) and methanol containing 0.2% formic acid (B) at a flow rate of 0.6 mL/min. The gradient program was set as follows: from 0 min to 0.5 min, 60% B; from 0.5 min to 3.5 min, 90% B; from 3.5 min to 4.5 min, 90% B; from 4.51 min to 5.0 min, 60% B. The injection volume was […].
(§5) The MS/MS parameters were set as follows: ion spray voltage, 5500 V; curtain gas, 35 psi; Gas 1, 55 psi; Gas 2: 55 psi; temperature, […]. The optimized multiple reaction monitoring (MRM) fragmentation transitions and MS parameters of each analyte are summarized in Table 1.

CYP11A1 = target: T2, CYP11A1 (Homo sapiens, UniProt P05108); experiment: H295R Steroid Biosynthesis Inhibition Assay - inhibition of pregnenolone (P) production catalyzed by CYP11A1 in NCI-H295R cells; assay type: cell-based; settings: 48 h, LC-MS/MS, read-out: Inh. of P IC50
T2 construct: measuring the cellular production of pregnenolone (P) catalyzed by CYP11A1; host or cells: NCI-H295R
T2 sequence (P05108 40-521): T1 sequence (P05108 40-521)
Procedure: as §1, §2, §3, §4, §5

| IC50 [1] | IC50 (CYP11A1) | SMILES |
| --- | --- | --- |
| 41 to 100 nM | 40 to 100 nM | CN(C)S(=O)(=O)N1CCC(c2cnc3cc(CN4Cc5ccccc5C4)ccc3n2)CC1 [Compound 99] |
| ≤ 40 nM | ≤ 40 nM | CS(=O)(=O)N1CC=C(c2coc3cc(CN4Cc5ccccc5C4)ccc3c2=O)CC1 [Compound 65] |
| 41 to 100 nM | 40 to 100 nM | O=C(C1CC1)N1CCC(c2cnc3cc(CN4Cc5ccccc5C4)ccc3n2)CC1 [Compound 102] |
| ≤ 40 nM | ≤ 40 nM | CNC(=O)N1CCC(c2cnc3cc(CN4Cc5ccccc5C4)ccc3n2)CC1 [Compound 115] |
| ≤ 40 nM | ≤ 40 nM | Cn1c(C2CCN(S(C)(=O)=O)CC2)nc2ccc(CN3Cc4ccccc4C3)cc2c1=O [Compound 63] |
| ≤ 40 nM | ≤ 40 nM | CO[C@H]1CC[C@H](c2cc3oc(CN4Cc5ccccc5C4)cc(=O)c3o2)CC1 [Compound 38] |
| ≤ 40 nM | ≤ 40 nM | CS(=O)(=O)N1CCC(n2cc3ccc(CN4Cc5ccccc5C4)cc3n2)CC1 [Compound 131] |
| ≤ 40 nM | ≤ 40 nM | CS(=O)(=O)N1CCC(c2cc(=O)c3cc(CN4Cc5ccccc5C4)ccc3o2)CC1 [Compound 60] |
| ≤ 40 nM | ≤ 40 nM | CCCCS(=O)(=O)N1CCC(c2cnc3cc(CN4Cc5ccccc5C4)ccc3n2)CC1 [Compound 93] |
| ≥ 101 nM | 40 to 100 nM | CS(=O)(=O)N1CCCC(c2cc3oc(CN4Cc5ccccc5C4)cc(=O)c3o2)C1 (stereo not shown) [Compound 16] |
| 41 to 100 nM | ≤ 40 nM | O=C(NCC(F)(F)F)N1CCC(c2cnc3cc(CN4Cc5ccccc5C4)ccc3n2)CC1 [Compound 120] |
| ≤ 40 nM | ≤ 40 nM | CS(=O)(=O)N1CCC(c2cnc3cc(CN4Cc5ccc(OC(F)F)cc5C4)ccc3n2)CC1 [Compound 89] |
| ≤ 40 nM | ≤ 40 nM | Cc1ccc2c(c1)CN(Cc1cc(=O)c3oc(C4CCN(S(C)(=O)=O)CC4)cc3o1)C2 [Compound 18] |
| ≤ 40 nM | ≤ 40 nM | O=c1cc(CN2Cc3ccccc3C2)oc2cc(C34CCC(O)(CC3)CC4)oc12 [Compound 34] |
| ≥ 101 nM | ≥ 100 nM | CS(=O)(=O)N1CCC(COc2coc(CN3CCc4sccc4C3)cc2=O)CC1 [Compound 5] |
| ≥ 101 nM | ≥ 100 nM | CS(=O)(=O)N1CCC(c2cc(=O)c3nc(CN4Cc5ccccc5C4)ccc3o2)CC1 [Compound 61] |
| ≤ 40 nM | ≤ 40 nM | COC(=O)N1CCC(c2cc3oc(CN4Cc5ccccc5C4)cc(=O)c3o2)CC1 [Compound 15] |
| 41 to 100 nM | ≤ 40 nM | N#C[C@H]1CC[C@H](c2cc3oc(CN4Cc5ccccc5C4)cc(=O)c3o2)CC1 [Compound 48] |
| ≤ 40 nM | ≤ 40 nM | O=c1cc(CN2Cc3ccccc3C2)occ1OC[C@H]1CC[C@H](O)CC1 [Compound 2] |
| ≤ 40 nM | ≤ 40 nM | O=C(OC1CCCC1)N1CCC(c2cnc3cc(CN4Cc5ccccc5C4)ccc3n2)CC1 [Compound 114] |
| 41 to 100 nM | ≤ 40 nM | CS(=O)(=O)N1C[C@@H]2[C@H](C1)[C@H]2c1cnc2cc(CN3Cc4ccccc4C3)ccc2n1 [Compound 86] |
| ≤ 40 nM | ≤ 40 nM | CC(c1ccc(OCC2CCN(S(C)(=O)=O)CC2)c2ncccc12)N1Cc2ccccc2C1 (stereo not shown) [Compound 9] |
| ≤ 40 nM | ≤ 40 nM | O[C@H]1CC[C@H](c2nc3cc(CN4Cc5ccccc5C4)ccc3o2)CC1 [Compound 127] |
